Data published in patent publication US6936622B2, “6-phenylbenzonaphthyridines” (Altana Pharma AG, priority 2001, dated 2005).
Counter-ions that a name gives are not always drawn.

Legend:
PDE3 (cGMP-inhibited) = biological target: T1, PDE3 (cGMP-inhibited) (Homo sapiens, UniProt Q14432); assay: Inhibition of PDE isoenzymes: PDE3; type: biochemical; details: homogenates of human platelets, cAMP or cGMP as substrate; read-out: PDE3 [-log IC50, mol/l] (converted)
T1 construct: investigated in homogenates of human platelets; from tissue; host or cells: homogenates of human platelets
Method: (§1) 1. Inhibition of PDE Isoenzymes
(§2) The PDE activity was determined according to Thompson et al. (Adv Cycl Nucl Res 10: 69-92, 1979) with some modifications (Bauer and Schwabe, Naunyn-Schmiedeberg's Arch Pharmacol 311: 193198, 1980). The test samples contained 20 mM Tris (pH 7.4), 5 mM MgCl2, 0.5 μM cAMP or cGMP, [^3H]cAMP or [^3H]cGMP (about 30 000 cpm/sample), the PDE isoenzyme-specific additives described in greater detail below, the indicated concentrations of inhibitor and an aliquot of the enzyme solution in a total sample volume of 200 μl. Dilution series of the compounds according to the invention were prepared in DMSO and further diluted in the samples [1:100 (v/v)], to give the desired end concentration of the inhibitors at a DMSO concentration of 1% (v/v), which for its part has only a minute effect on PDE activity.
(§3) After preincubation at 37° C. for 5 minutes, the reaction was started by addition of the substrate (cAMP or cGMP). The samples were incubated at 37° C. for a further 15 min. The reaction was terminated by addition of 50 μl 0.2 N HCl. After cooling on ice for 10 minutes and addition of 25 μg 5′-nucleotidase (snake venom from Crotalus atrox), the mixture was again incubated at 37° C. for 10 min and the samples were then applied to QAE Sephadex A-25 columns (sample volume 1 ml). The columns were eluted with 2 ml of 30 mM ammonium formate (pH 6.0). The radioactivity of the eluate was measured and corrected by the corresponding blank values (measured in the presence of denatured protein); the blank values were less than 5% of the total radioactivity. In no case did the proportion of hydrolyzed nucleotide exceed 30% of the original substrate concentration.
PDE3 (cGMP-inhibited) was investigated in homogenates of human platelets (see Schudt et al., Biochem Pharmacol 1991: 42, 153-162) using cAMP or cGMP as substrate.
(§4) The IC50 values were determined from the concentration-inhibition curves by nonlinear regression.

PDE4 (cAMP-specific) = assay: Inhibition of PDE isoenzymes: PDE4; type: biochemical; details: cytosol of human polymorphonuclear leukocytes (PMNL), cAMP as substrate, motapizone 1 μM
Method: as §1, §2, §3
PDE4 (cAMP-specific) was investigated in the cytosol of human polymorphonuclear leukocytes (PMNL) [isolated from leukocyte concentrates, see Schudt et al., Arch Pharmacol 1991: 344, 682-690] using cAMP as substrate. The PDE3 inhibitor motapizone (1 μM) was used to suppress the PDE3 activity emanating from contaminated platelets.
as §4

T1 sequence (Q14432 whole entry): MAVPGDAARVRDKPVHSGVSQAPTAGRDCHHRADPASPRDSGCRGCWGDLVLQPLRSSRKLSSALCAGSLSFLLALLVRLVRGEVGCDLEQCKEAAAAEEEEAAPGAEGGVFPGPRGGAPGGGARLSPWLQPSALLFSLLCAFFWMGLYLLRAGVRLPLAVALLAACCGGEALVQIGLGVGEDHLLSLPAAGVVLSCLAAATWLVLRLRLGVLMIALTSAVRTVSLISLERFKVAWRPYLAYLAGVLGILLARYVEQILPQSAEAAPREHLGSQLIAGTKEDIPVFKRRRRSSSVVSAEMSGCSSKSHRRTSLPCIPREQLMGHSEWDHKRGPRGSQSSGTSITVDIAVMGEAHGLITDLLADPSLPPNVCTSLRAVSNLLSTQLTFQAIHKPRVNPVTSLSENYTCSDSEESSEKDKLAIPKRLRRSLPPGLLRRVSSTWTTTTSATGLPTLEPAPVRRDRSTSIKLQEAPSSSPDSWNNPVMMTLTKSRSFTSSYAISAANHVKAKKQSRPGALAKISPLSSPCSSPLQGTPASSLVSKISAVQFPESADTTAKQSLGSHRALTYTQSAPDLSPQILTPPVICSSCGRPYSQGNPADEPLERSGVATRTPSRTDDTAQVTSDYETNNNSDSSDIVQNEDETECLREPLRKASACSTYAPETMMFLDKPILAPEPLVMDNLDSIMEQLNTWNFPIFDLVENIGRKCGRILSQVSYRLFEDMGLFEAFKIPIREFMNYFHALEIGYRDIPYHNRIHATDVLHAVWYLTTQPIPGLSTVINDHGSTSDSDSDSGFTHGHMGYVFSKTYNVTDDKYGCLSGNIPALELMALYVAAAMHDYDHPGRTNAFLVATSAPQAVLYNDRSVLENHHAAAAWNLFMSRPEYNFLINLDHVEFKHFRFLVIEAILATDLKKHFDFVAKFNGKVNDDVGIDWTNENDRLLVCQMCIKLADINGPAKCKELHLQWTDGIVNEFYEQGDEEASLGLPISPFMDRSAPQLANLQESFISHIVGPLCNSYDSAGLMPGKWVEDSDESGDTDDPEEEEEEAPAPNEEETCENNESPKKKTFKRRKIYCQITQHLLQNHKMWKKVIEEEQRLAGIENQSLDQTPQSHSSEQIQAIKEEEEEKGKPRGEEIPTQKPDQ

Row | SMILES | IC50 (PDE3 (cGMP-inhibited)) | PDE4 [-log IC50, mol/l] (PDE4 (cAMP-specific)) | melting point
1 | CCOc1cc2c(cc1OC)C(c1ccc(C(=O)NC(=N)N(CC)CC)cc1)=NC1CCN(C)CC21 (stereo not drawn) [Compound 2, N′-{1-[4-((+)-cis-9-Ethoxy-8-methoxy-2-methyl-1,2,3,4,4a,10b-hexahydro[c][1,6]naphthyridin-6-yl)phenyl]methanoyl}-N,N-diethylguanidine dihydrochloride] | 42.7 nM | 9.77 | –
2 | CCCCNC(=N)NC(=O)c1ccc(C2=N[C@H]3CCN(C)C[C@H]3c3cc(OCC)c(OC)cc32)cc1 (relative stereo) [Compound 21, N-Butyl-N′-{1-[4-((−)-cis-9-ethoxy-8-methoxy-2-methyl-1,2,3,4,4a,10b-hexahydro-benzo[c][1,6]naphthyridin-6-yl)-phenyl]-methanoyl}-guanidine] | 129 nM | 9.49 | –
3 | CCOc1cc2c(cc1OC)C(c1ccc(C(=O)NC(=N)NCC(C)C)cc1)=N[C@H]1CCN(C)C[C@@H]21 (relative stereo) [Compound 17, N-{1-[4-((−)-cis-9-Ethoxy8-methoxy-2-methyl-1,2,3,4,4a,10b-hexahydro-benzo[c][1,6]naphthyridin-6-yl)-phenyl]-methanoyl}-N′-isobutyl-guanidine] | 123 nM | 9.34 | –
4 | CCOc1cc2c(cc1OC)C(c1ccc(C(=O)NC(=N)NCC3CCCCC3)cc1)=N[C@H]1CCN(C)C[C@@H]21 (relative stereo) [Compound 20, N-Cyclohexylmethyl-N′-{1-[4-((−)-cis-9-ethoxy-8-methoxy-2-methyl-1,2,3,4,4a,10b-hexahydro-benzo[c][1,6]naphthyridin-6-yl)-phenyl]-methanoyl}-guanidine] | 97.7 nM | 9.65 | –
5 | COc1cc2c(cc1OC)[C@@H]1CN(C)CC[C@@H]1N=C2c1ccc(C(=O)N=C(N(C)C)N(C)C)cc1.Cl | – | – | 161 to 166 °C
6 | CCOc1cc2c(cc1OC)C(c1ccc(C(=O)N=C(N(C)C)N(C)C)cc1)=NC1CCN(C)CC21 (single isomer, unassigned) [Compound 5, N″{1-[4-((−)-cis-9-Ethoxy-8-methoxy-2-methyl-1,2,3,4,4a,10b-hexahydro[c][1.6]naphthyridin-6-yl)phenyl]methanoyl}-N,N,N′,N′-tetramethylguanidine hydrochloride] | 129 nM | 9.01 | –
7 | CCOc1cc2c(cc1OC)C(c1ccc(C(=O)NC(=N)N)cc1)=N[C@H]1CCN(C)C[C@@H]21 (relative stereo) [Compound 7, N-{1-[4-((−)-cis-9-Ethoxy-8-methoxy-2-methyl-1,2,3,4,4a,10b-hexahydro-benzo[c]-[1,6]naphthyridin-6-yl)-phenyl]-methanoyl}guanidine] | 195 nM | 8.83 | –
8 | CCOc1cc2c(cc1OC)C(c1ccc(C(=O)NC(=N)N3CCOCC3)cc1)=NC1CCN(C)CC21 (stereo not drawn) (as salt: hydrochloride) [Compound 1, 4-[(+)-cis-9-Ethoxy-8-methoxy-2-methyl-1,2,3,4,4a,10b-hexahydro[c][1,6]naphthyridin-yl)-N-(1-imino-1-morpholin-4-ylmethyl)]benzamide dihydrochloride] | – | – | 208 to 218 °C
9 | CCOc1cc2c(cc1OC)C(c1ccc(C(=O)NC(=N)NC)cc1)=N[C@H]1CCN(C)C[C@@H]21 (relative stereo) [Compound 14, N-{1-[4-((−)-cis-9-Ethoxy-8-methoxy-2-methyl-1,2,3,4,4a,10b-hexahydro-benzo[c][1,6]naphthyridin-6-yl)-phenyl]-methanoyl}-N′-methyl-guanidine] | 309 nM | 8.82 | –
10 | CCOc1cc2c(cc1OC)C(c1ccc(C(=O)NC(=N)N3CCOCC3)cc1)=NC1CCN(C)CC21 (stereo not drawn) [Compound 1, 4-[(+)-cis-9-Ethoxy-8-methoxy-2-methyl-1,2,3,4,4a,10b-hexahydro[c][1,6]naphthyridin-yl)-N-(1-imino-1-morpholin-4-ylmethyl)]benzamide dihydrochloride] | 135 nM | 9.22 | –
11 | CCOc1cc2c(cc1OC)C(c1ccc(C(=O)N=C(N)N3CCN(C)CC3)cc1)=NC1CCN(C)CC21 (stereo not drawn) [Compound 6, N-[1-Amino-1-(4-methylpiperazin-1-yl)methylene]-4-((+)-cis-9-ethoxy-8-methoxy-2-methyl-1,2,3,4,4a,10b-hexahydro[c][1,6]naphthyridin-6-yl)benzamide dihydrochloride] | 363 nM | 9.13 | –
12 | CCNC(=N)NC(=O)c1ccc(C2=N[C@H]3CCN(C)C[C@H]3c3cc(OCC)c(OC)cc32)cc1 (relative stereo) [Compound 18, N-{1-[4-((−)-cis-9-Ethoxy-8-methoxy-2-methyl-1,2,3,4,4a,10b-hexahydro-benzo[c][1,6]naphthyridin-6-yl)-phenyl]-methanoyl}-N′-ethyl-guanidine] | 245 nM | 8.76 | –
13 | CCOc1cc2c(cc1OC)C(c1ccc(C(=O)NC(=N)N(CC)CC)cc1)=NC1CCN(C)CC21 (stereo not drawn) (as salt: hydrochloride) [Compound 2, N′-{1-[4-((+)-cis-9-Ethoxy-8-methoxy-2-methyl-1,2,3,4,4a,10b-hexahydro[c][1,6]naphthyridin-6-yl)phenyl]methanoyl}-N,N-diethylguanidine dihydrochloride] | – | – | 194 to 203 °C
14 | CCOc1cc2c(cc1OC)C(c1ccc(C(=O)NC(=N)N(C)CCO)cc1)=NC1CCN(C)CC21 (stereo not drawn) [Compound 4, N′-{1-[4-((+)-cis-9-Ethoxy-8-methoxy-2-methyl-1,2,3,4,4a,10b-hexahydro[c][1,6]naphthyridin-6-yl)phenyl]methanoyl}-N-(2-hydroxyethyl)-N-methylguanidine dihydrochloride] | 1150 nM | 8.34 | –
15 | CCOc1cc2c(cc1OC)C(c1ccc(C(=O)NC(=N)NC(C)C)cc1)=N[C@H]1CCN(C)C[C@@H]21 (relative stereo) [Compound 15, N-{1-[4-((−)-cis-9-Ethoxy-8-methoxy-2-methyl-1,2,3,4,4a,10b-hexahydro-benzo[c][1,6]naphthyridin-6-yl)-phenyl]-methanoyl}-N′-isopropyl-guanidine] | 155 nM | 9.11 | –
16 | CCOc1cc2c(cc1OC)C(c1ccc(C(=O)N=C(N(C)C)N(C)C)cc1)=NC1CCN(C)CC21 (single isomer, unassigned) (as salt: hydrochloride) [Compound 5, N″{1-[4-((−)-cis-9-Ethoxy-8-methoxy-2-methyl-1,2,3,4,4a,10b-hexahydro[c][1.6]naphthyridin-6-yl)phenyl]methanoyl}-N,N,N′,N′-tetramethylguanidine hydrochloride] | – | – | 169 to 175 °C
17 | CCOc1cc2c(cc1OC)C(c1ccc(C(=O)NC(=N)N(C)C)cc1)=NC1CCN(C)CC21 (stereo not drawn) (as salt: hydrochloride) [Compound 3, N′{1-[4-((+)-cis-9-Ethoxy-8-methoxy-2-methyl-1,2,3,4,4a,10b-hexahydro[c][1,6[-naphthyridin-6-yl)phenyl]methanoyl}-N,N-dimethylguanidinedihydrochloride] | – | – | 134 to 141 °C
18 | CCCNC(=N)NC(=O)c1ccc(C2=N[C@H]3CCN(C)C[C@H]3c3cc(OCC)c(OC)cc32)cc1 (relative stereo) [Compound 16, N-{1-[4-((−)-cis-9-Ethoxy-8-methoxy-2-methyl-1,2,3,4,4a,10b-hexahydro-benzo[c][1,6]naphthyridin-6-yl)-phenyl]-methanoyl}-N′-propyl-guanidine] | 166 nM | 9.65 | –
19 | CCOc1cc2c(cc1OC)C(c1ccc(C(=O)NC(=N)N(C)C)cc1)=NC1CCN(C)CC21 (stereo not drawn) [Compound 3, N′{1-[4-((+)-cis-9-Ethoxy-8-methoxy-2-methyl-1,2,3,4,4a,10b-hexahydro[c][1,6[-naphthyridin-6-yl)phenyl]methanoyl}-N,N-dimethylguanidinedihydrochloride] | 87.1 nM | 9.39 | –
20 | CCOc1cc2c(cc1OC)C(c1ccc(C(=O)NC(=N)NC3CCCCC3)cc1)=N[C@H]1CCN(C)C[C@@H]21 (relative stereo) [Compound 19, N-Cyclohexyl-N′-{1-[4-((−)-cis-9-ethoxy-8-methoxy-2-methyl-1,2,3,4,4a,10b-hexahydro-benzo [c][1,6]naphthyridin-6-yl)-phenyl]-methanoyl}-guanidine] | 132 nM | 9.50 | –
